Where a name gives a salt, the structure may show the parent alone. Read-outs that look alike come from different tables or passages of the source.

We go through 35 compounds from patent publication US8716493B2, “Multicyclic compounds and the use thereof” (Cephalon, Inc., priority 2000, dated 2014).

Assay [1] concerns the target T1, human VEGFR2 cytoplasmic domain (Homo sapiens, UniProt P35968).
T1 construct: recombinant human baculovirus-expressed human VEGFR2 cytoplasmic domain; host or cells: baculovirus-expressed
Put plainly: Measurement of VEGFR2 kinase enzymatic activity (time-resolved fluorescence, PLC-γ/GST substrate). It is filed as biochemical. Conditions: Table 5; for VEGFR2 % @ 300 nM: percent inhibition at 300 nM. How it is done:
A 96-well FluoroNUNC MaxiSorp plate was coated with 100 μL/well of recombinant human PLC-γ/GST substrate solution at a concentration of 40 μg/mL in Tris-buffered saline (TBS). The VEGFR2 activity was assayed in a 100 μL assay mixture containing 50 mM HEPES (pH 7.4), 30 μM ATP, 10 mM MnCl2, 0.1% BSA, 2% DMSO, and 150 ng/mL recombinant human baculovirus-expressed human VEGFR2 cytoplasmic domain (prephosphorylated for 60 min at 4° C. in the presence of 30 μM ATP and 10 mM MnCl2 prior to use). The kinase reaction was allowed to proceed at 37° C. for 15 min. The europium-labeled anti-phosphotyrosine detection antibody was added at 1:5000 dilution in block buffer (3% BSA in TBST). After 1 hour of incubation at 37° C., 100 μL of enhancement solution (Wallac #1244-105) was added and the plate was gently agitated. After 5 min, the time-resolved fluorescence of the resulting solution was measured using the BMG PolarStar (Model #403) using excitation and emission wavelengths of 340 nm and 615 nm, respectively, a collection delay of 400 μsec and an integration time of 400 μsec.
(§1) Single-point inhibition data were calculated by comparing PARP, VEGFR2, or MLK3 activity in the presence of inhibitor to activity in the presence of DMSO only. Inhibition curves for compounds were generated by plotting percent inhibition versus log10 of the concentration of compound. IC50 values were calculated by nonlinear regression using the sigmoidal dose-response (variable slope) equation in GraphPad Prism as follows: y=bottom+(top−bottom)/(1+10^(log IC50^−x)*Hillslope) where y is the % activity at a given concentration of compound, x is the logarithm of the concentration of compound, bottom is the % inhibition at the lowest compound concentration tested, and top is the % inhibition at the highest compound concentration examined. The values for bottom and top were fixed at 0 and 100, respectively. IC50 values were reported as the average of at least three separate determinations.
The following Examples 5 to 10 present PARP, VEGFR2, and MLK3 inhibiting data for compounds of the present invention. […] For some compounds, inhibiting data is presented as percent inhibition at a specified concentration. Compounds are tabulated together with compound number, substituents, and enzyme inhibition data.

In assay [2] the test system is rat model of focal cerebral ischemia. The settings on record: i.p. 10 mg/kg two hours prior to and two hours after initiation of ischemia; cited from earlier work.
A further assay deals with T2, MLK3 (Homo sapiens, UniProt Q16584).
T2 construct: 2 μg/mL of baculoviral human GST-MLK1 kinase domain; GST (N); host or cells: baculovirus expression
T2 sequence (Q16584 117-379 limits assumed): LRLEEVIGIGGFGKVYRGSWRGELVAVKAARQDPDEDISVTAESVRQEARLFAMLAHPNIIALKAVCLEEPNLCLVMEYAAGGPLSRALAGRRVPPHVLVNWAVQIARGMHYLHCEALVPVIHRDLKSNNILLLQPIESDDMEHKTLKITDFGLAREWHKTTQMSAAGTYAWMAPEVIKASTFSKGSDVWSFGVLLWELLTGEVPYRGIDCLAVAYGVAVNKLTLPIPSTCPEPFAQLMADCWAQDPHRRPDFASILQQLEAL
Put plainly: Measurement of MLK3 enzymatic activity (32P phosphorylation of myelin basic protein). It is filed as biochemical. The settings on record: percent inhibition at 1 μM; Table 5. The method, then: The activity assay for MLK3 was performed in Millipore Multiscreen plates. Each 50 μL assay mixture contained 50 mM HEPES (pH 7.0), 1 mM EGTA, 10 mM MgCl2, 1 mM DTT, 25 mM β-glycerophosphate, 100 μM ATP, 1 μCi [γ-^32P]ATP, 0.1% BSA, 500 μg/mL myelin basic protein, 2% DMSO, various concentrations of test compounds, and 2 μg/mL of baculoviral human GST-MLK1 kinase domain. Samples were incubated for 15 min at 37° C. The reaction was stopped by adding ice-cold 50% TCA and the proteins were allowed to precipitate for 30 min at 4° C.
as §1
For some compounds, inhibiting data is presented as percent inhibition at a specified concentration. Compounds are tabulated together with compound number, substituents, and enzyme inhibition data.

Assay [3] has as its system suture occlusion model of focal ischemia. Conditions: rat; 10 mg/kg; cited from earlier work.
Assay [4] concerns mouse MCA occlusion (suture thread method). The settings on record: mice; intracerebroventricular administration; two hour MCA occlusion; cited from earlier work.
The target in a further assay is recombinant human PARP (Homo sapiens, UniProt P09874). Put plainly: Measurement of PARP enzymatic activity (transfer of radiolabeled ADP-ribose from NAD+ to protein acceptor). It counts as biochemical. The procedure, abridged: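 Radiometric assay measuring transfer of [32P]ADP-ribose from NAD+ (100 μM, 2 uCi/mL label) to histone or PARP automodification, 12 min at room temperature; acid-insoluble radioactivity counted by scintillation.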
Chain of recombinant human PARP (P09874 whole entry): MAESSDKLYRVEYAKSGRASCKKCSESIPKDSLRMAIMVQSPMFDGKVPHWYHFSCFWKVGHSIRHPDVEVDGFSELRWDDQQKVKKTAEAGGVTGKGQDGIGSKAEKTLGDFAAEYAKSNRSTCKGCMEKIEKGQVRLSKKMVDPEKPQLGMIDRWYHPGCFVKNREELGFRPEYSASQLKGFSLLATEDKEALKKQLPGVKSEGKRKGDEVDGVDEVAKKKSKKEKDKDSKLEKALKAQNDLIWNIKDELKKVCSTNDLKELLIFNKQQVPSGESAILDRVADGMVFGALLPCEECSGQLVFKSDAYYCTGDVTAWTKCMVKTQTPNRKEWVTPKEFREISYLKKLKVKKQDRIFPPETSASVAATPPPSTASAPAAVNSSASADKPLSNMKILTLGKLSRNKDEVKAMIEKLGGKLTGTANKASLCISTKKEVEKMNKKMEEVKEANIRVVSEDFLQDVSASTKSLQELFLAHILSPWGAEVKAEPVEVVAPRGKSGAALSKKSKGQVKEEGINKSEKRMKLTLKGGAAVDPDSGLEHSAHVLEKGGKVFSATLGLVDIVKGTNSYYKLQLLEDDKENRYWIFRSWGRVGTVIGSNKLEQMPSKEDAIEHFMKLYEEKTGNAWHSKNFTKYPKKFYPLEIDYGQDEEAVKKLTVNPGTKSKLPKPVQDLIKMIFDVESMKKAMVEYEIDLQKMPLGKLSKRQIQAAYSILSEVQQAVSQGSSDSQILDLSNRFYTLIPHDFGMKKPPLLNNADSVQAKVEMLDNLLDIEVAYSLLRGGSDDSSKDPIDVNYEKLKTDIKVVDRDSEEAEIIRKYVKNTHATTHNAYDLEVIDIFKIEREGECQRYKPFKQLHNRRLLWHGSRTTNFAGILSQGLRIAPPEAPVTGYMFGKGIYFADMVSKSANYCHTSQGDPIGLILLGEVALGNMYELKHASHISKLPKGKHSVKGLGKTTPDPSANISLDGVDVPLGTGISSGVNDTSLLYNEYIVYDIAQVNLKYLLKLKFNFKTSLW

T1 sequence (P35968 786-1356 limits assumed): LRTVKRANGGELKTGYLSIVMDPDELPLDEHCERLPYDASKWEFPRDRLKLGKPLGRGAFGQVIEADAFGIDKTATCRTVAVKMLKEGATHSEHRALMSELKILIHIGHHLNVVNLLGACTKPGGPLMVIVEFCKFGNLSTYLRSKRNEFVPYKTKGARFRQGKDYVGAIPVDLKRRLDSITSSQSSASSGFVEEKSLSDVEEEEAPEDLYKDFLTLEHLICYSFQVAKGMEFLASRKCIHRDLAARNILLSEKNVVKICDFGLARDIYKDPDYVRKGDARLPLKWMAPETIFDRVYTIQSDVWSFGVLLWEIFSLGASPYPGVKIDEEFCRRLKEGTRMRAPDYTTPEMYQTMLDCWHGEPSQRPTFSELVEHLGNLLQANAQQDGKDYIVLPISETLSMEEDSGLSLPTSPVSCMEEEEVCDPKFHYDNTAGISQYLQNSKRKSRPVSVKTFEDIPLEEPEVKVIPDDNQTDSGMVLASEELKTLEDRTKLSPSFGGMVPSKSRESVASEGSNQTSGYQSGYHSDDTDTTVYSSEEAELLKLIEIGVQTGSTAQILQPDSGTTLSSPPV

In general, IC50 refers to the point on the concentration scale where inhibition reaches its midpoint. `O=C1NCc2c3c(c4[nH]c5ccccc5c4c21)CCC3` [Compound 11a, 5,7,8,9,10,11-Hexahydrocyclopent[a]pyrrolo[3,4-c]carbazole-5(6H)-one] had an IC50 in assay [1] of 477 nM. On to `O=C1NCCc2c(OCCCCN3CCCCC3)cccc21` [DPQ, 3,4-dihydro-5-[4-(1-piperidinyl)butoxy]-1(2H)-isoquinolinone], for which the “reduction in infarct volume” value in assay [2] is reported as 54%. `O=C1NC(=O)c2c1c1c(c3[nH]c4ccccc4c23)CCCC1` [Compound 11b, 5,7,9,10,11,12-Hexahydrocyclohexano[a]pyrrolo[3,4-c]carbazole-5(6H), 7(8H)-dione] returned an IC50 in assay [1] of 698 nM. For the same compound, the “MLK3 % @ 1 μM” value on MLK3 is recorded as 26%. In the same order, the values of `O=C1NC(=O)c2c1c1ccccc1c1[nH]c3ccccc3c21` [Compound 11e] are 166 nM and 35%.

Take “9-Ethyl-8-propyl-5,7-dihydropyrrolo[3,4-c]carbazole-5(6H), 7(10H)-dione [Compound 11c]”: in assay [1] (percent inhibition at 100 nM), the “VEGFR2 % @100 nM” value came out at 0% @100 nM. The “MLK3 % @ 1 μM” value on MLK3 was 46%. Turning to `O=C1NC(=O)c2c1c1c(c3[nH]c4ccccc4c23)CCO1` [Compound 11f, 5,7,10,11-Tetrahydrofuran[a-3,2]pyrrolo[3,4-c]carbazole-5(6H), 7(9H)-dione], in assay [1], the “VEGFR2 % @ 300 nM” value worked out at 3%. Moreover, the “MLK3 % @ 1 μM” value at MLK3 is on record as 62%.

For `O=C1NC(=O)c2c1c1occc1c1[nH]c3ccccc3c21` [Compound 11g, 5,7-Dihydrofuran[a-3,2]pyrrolo[3,4-c]carbazole-5(6H), 7(11H)-dione], the “VEGFR2 % @ 300 nM” value in assay [1] amounted to 8%. In addition, at MLK3, the “MLK3 % @ 1 μM” value is reported as 16%. Take `NC(=O)c1cccc(N)c1` [Compound 3-AB, 3-aminobenzamide]: the infarct volume result in assay [3] is listed as “significantly reduced”. The “decrease in infarct volume” value in assay [4] is 47%. `O=C1NC(=O)c2c1c1cnccc1c1[nH]c3ccccc3c21` [Compound 12a] showed an IC50 in assay [1] of 235 nM. The “MLK3 % @ 1 μM” value on MLK3 is 74%. The compound `Cn1c2ccccc2c2c3c(c4c(c21)CCCC4)C(=O)NC3=O` [Compound 11d] displayed an IC50 in assay [1] of 778 nM. Further, the “MLK3 % @ 1 μM” value on MLK3 was determined as 52%. Regarding `O=CNCc1ccc2[nH]c3c4c(c5c(c3c2c1)C(O)NC5=O)CCC4` (centres unmarked) [Compound 2cf], at recombinant human PARP (Table 2, read-out: PARP IC50), the IC50 came out at 124 nM. Consider `COCCNC(=O)Oc1ccc2[nH]c3c4c(c5c(c3c2c1)C(=O)NC5=O)CCC4` [Compound 15c], for which, at recombinant human PARP (PARP IC50 (nM), Table 8), the IC50 was found to be 40 nM. With `O=C1NC(=O)c2c1c1c(c3[nH]c4ccc(Br)cc4c23)CCC1` [Compound 2a], on recombinant human PARP (Table 2, read-out: PARP IC50), the IC50 stood at 25 nM.

With `O=C1NC(=O)c2c1c1c(c3[nH]c4ccccc4c23)CCC1` [Compound 1a, 5,7,8,9,10,11-hexahydrocyclopent[a]pyrrolo[3,4-c]carbazole-5(6H), 7-dione], the IC50 on recombinant human PARP (Table 1, read-out: PARP IC50) worked out at 36 nM; at recombinant human PARP (Table 3, read-out: PARP IC50), 36 nM. Take `CC(C)(C)OC(=O)NCCNC(=O)CCC(=O)c1ccc2[nH]c3c4c(c5c(c3c2c1)C(=O)NC5=O)CCC4` [Compound 4d]: on recombinant human PARP (Table 2, read-out: PARP IC50), the half-inhibitory concentration (IC50) was found to be 16 nM. Regarding `O=C(NCc1nc(-c2ccc3[nH]c4c5c(c6c(c4c3c2)C(=O)NC6=O)CCC5)cs1)OCc1ccccc1` [Compound 3j], on recombinant human PARP (PARP IC50 (nM), Table 2), the IC50 was found to be 20 nM.

Turning to `O=C(O)CCC(=O)c1ccc2[nH]c3c4c(c5c(c3c2c1)C(=O)NC5=O)CCC4` [Compound 2m], the IC50 at recombinant human PARP (Table 2, read-out: PARP IC50) is 3 nM. Take `O=C1NC(=O)c2c1c1c(c3[nH]c4ccc(COCCc5ccccn5)cc4c23)CCC1` [Compound 2df]: the IC50 at recombinant human PARP (Table 2, read-out: PARP IC50) is 104 nM.

For the compound `CCC(=O)NCc1nc(-c2ccc3[nH]c4c5c(c6c(c4c3c2)C(=O)NC6=O)CCC5)cs1` [Compound 3s], the IC50 at recombinant human PARP (Table 2, read-out: PARP IC50) was found to be 56 nM. The same measure, in the same setting: to `O=C1NC(=O)c2c1c1c(c3[nH]c4ccc(CNCc5ccc6[nH]c7c8c(c9c(c7c6c5)C(=O)NC9=O)CCC8)cc4c23)CCC1` [Compound 2q, Bis-[5(6H), 7-dioxo-5,7,8,9,10,11-hexahydrocyclopent[a]pyrrolo[3,4-c]carbazol-3-ylmethyl]amine hydrochloride] belongs 167 nM; to `O=C1NC(=O)c2c1c1c(c3[nH]c4ccc(F)cc4c23)CCC1` [Compound 2c], 39 nM. The same measure, in the same setting: the value for `CN(C)CCNC(=O)c1ccc2[nH]c3c4c(c5c(c3c2c1)C(=O)NC5=O)CCC4` [Compound 2cg] was 31 nM. Take `O=C(CBr)c1ccc2[nH]c3c4c(c5c(c3c2c1)C(=O)NC5=O)CCC4` [Compound 2e]: the IC50 on recombinant human PARP (PARP IC50 (nM), Table 2) is 13 nM. As to `O=C1NC(=O)c2c1c1c(c3[nH]c4ccc(C(=O)N5CCC6(CC5)OCCO6)cc4c23)CCC1` [Compound 2db], at recombinant human PARP, the IC50 amounted to 11 nM. Consider `CCN(CC)Cc1ccc2[nH]c3c4c(c5c(c3c2c1)C(=O)NC5=O)CCC4` [Compound 2bm], for which, on recombinant human PARP (Table 2, read-out: PARP IC50), the IC50 worked out at 17 nM. On the same count and under the same terms, the value for `O=C(CCC(=O)N1CCNCC1)c1ccc2[nH]c3c4c(c5c(c3c2c1)C(=O)NC5=O)CCC4` [Compound 4r] was 15 nM; that for `CC(C)(C)OC(=O)NCCC(=O)NCc1ccc2[nH]c3c4c(c5c(c3c2c1)C(=O)NC5=O)CCC4` [Compound 2ca] was 95 nM; that for `O=C1NC(=O)c2c1c1c(c3[nH]c4ccc(-c5csc(NC6OC(CO)C(O)C(O)C6O)n5)cc4c23)CCC1` (centres unmarked) [Compound 3ab] was 17 nM. On to `COc1cccc2[nH]c3c4c(c5c(c3c12)C(=O)NC5=O)CCC4` [Compound 14b], for which the IC50 at recombinant human PARP (Table 7, read-out: PARP IC50) worked out at 19 nM. For `CCOCCOc1ccnc2[nH]c3c4c(c5c(c3c12)C(=O)NC5=O)CCC4` [Compound 8ab], at recombinant human PARP (Table 18, read-out: PARP IC50), the IC50 was 11 nM. As to `O=C(O)C(=O)c1ccc2[nH]c3c4c(c5c(c3c2c1)C(=O)NC5=O)CCC4` [Compound 2bb], the IC50 on recombinant human PARP (Table 2, read-out: PARP IC50) was 5 nM. Same read-out and setting: the value for `O=C(NCc1ccncc1)c1ccc2[nH]c3c4c(c5c(c3c2c1)C(=O)NC5=O)CCC4` [Compound 2ci] was 13 nM.

Regarding `COc1ccnc2[nH]c3c4c(c5c(c3c12)C(=O)NC5=O)CCC4` [Compound 8x], the IC50 on recombinant human PARP (Table 18, read-out: PARP IC50) turned out to be 4 nM. As to `CC(C)(C)OC(=O)[C@@H]1CCCN1CC(=O)c1ccc2[nH]c3c4c(c5c(c3c2c1)C(=O)NC5=O)CCC4` [Compound 4b], at recombinant human PARP (Table 2, read-out: PARP IC50), the IC50 amounted to 12 nM. `O=C1NC(=O)c2c1c1c(c3[nH]c4ccc(OC(=O)N5CCN(CCO)CC5)cc4c23)CCC1` [Compound 15l]: the IC50 on recombinant human PARP (PARP IC50 (nM), Table 8) turned out to be 15 nM.
